# Reference: ChEMBL document CHEMBL5506017, “Brain-Permeable Immunoproteasome-Targeting Macrocyclic Peptide Epoxyketones for Alzheimer's Disease” (J Med Chem, 2024)
# pIC50: −log10 of the molar value. The source made the active and inactive calls. The calls are words filed in the database; no cut-off is given here.
# How the values were obtained:
# [1] = target: T1, Proteasome subunit beta type-9 (Homo sapiens, UniProt P28065); assay: Inhibition of human LMP2 using Ac-PAL-AMC as substrate incubated for 1 hr by fluorescence based SpectraMax M5e plate reader
# T1 sequence (P28065 whole entry): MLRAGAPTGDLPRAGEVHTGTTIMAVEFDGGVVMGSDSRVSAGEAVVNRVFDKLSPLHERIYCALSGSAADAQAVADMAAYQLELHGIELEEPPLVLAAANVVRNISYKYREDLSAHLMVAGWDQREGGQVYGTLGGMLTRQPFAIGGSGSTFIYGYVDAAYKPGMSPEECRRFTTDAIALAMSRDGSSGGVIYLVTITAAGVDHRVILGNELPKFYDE
# [2] = Metabolic stability in human liver microsomes assessed as parent compound remaining at 2 uM measured at 60 mins by LC-MS/MS analysis; format: ADME, Microsome; details: 1 h
# [3] = Apparent permeability of the compound across basal to apical side in human Caco-2 cells expressing Pgp/BCRP at 10 uM incubated for 120 mins by LC-MS/MS analysis; format: ADME, cell-based; details: caco-2, 2 h
# [4] = Apparent permeability of the compound across apical to basolateral side in human Caco-2 cells expressing Pgp/BCRP at 10 uM incubated for 120 mins by LC-MS/MS analysis; format: ADME, cell-based; details: caco-2, 2 h
# [5] = Efflux ratio of apparent permeability across basolateral to apical side over apical to basolateral side in human Caco-2 cells expressing Pgp/BCRP at 10 uM incubated for 120 mins by LC-MS/MS analysis; format: ADME, cell-based; details: caco-2, 2 h
# [6] = Cytotoxicity against human HMC3 cells assessed as reduction in cell viability incubated for 96 hrs by CellTiter 96 Aqueous One Solution Cell Proliferation Assay; format: toxicity, cell-based
# HMC3 = assay: Cytotoxicity against human HMC3 cells assessed as reduction in cell viability at 30 to 100 uM incubated for 96 hrs by CellTiter 96 Aqueous One Solution Cell Proliferation Assay; format: toxicity, cell-based; details: hmc3, 96 h, dose 30-100 µM
# ARPE-19 = assay: Cytotoxicity against human ARPE-19 cells assessed as reduction in cell viability at 30 to 100 uM incubated for 96 hrs by CellTiter 96 Aqueous One Solution Cell Proliferation Assay; format: toxicity, cell-based; details: arpe-19, 96 h, dose 30-100 µM
# [7] = Mutagenicity in Salmonella typhimurium TA98 at 0.01 to 100 uM incubated for 90 mins in absence of liver S9 fraction by AMES test; format: toxicity; details: salmonella enterica subsp. enterica serovar typhimurium, s9, 1.5 h, dose 0.01-100 µM
# [8] = Mutagenicity in Salmonella typhimurium TA100 at 0.01 to 100 uM incubated for 90 mins in presence of liver S9 fraction by AMES test; format: toxicity, subcellular; details: salmonella enterica subsp. enterica serovar typhimurium, s9, 1.5 h, dose 0.01-100 µM
# [9] = target: T2, Proteasome subunit beta type-9 (Mus musculus) (UniProt P28076); assay: Inhibition of LMP2 in mouse BV-2 cells using Ac-PAL-AMC as substrate at 0.3 to 1 uM measured after 24 hrs by fluorescence based SpectraMax M5e plate reader; format: cell-based; details: dose 0.3-1 µM
# T2 sequence (whole entry): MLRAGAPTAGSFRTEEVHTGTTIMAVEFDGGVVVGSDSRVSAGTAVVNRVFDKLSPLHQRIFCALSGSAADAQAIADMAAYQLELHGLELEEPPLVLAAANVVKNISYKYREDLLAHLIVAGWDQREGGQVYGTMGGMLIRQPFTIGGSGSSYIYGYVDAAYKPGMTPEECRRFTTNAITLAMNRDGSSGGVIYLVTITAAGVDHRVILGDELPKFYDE
# [10] = AUC (0 to last) in BALB/c mouse at 40 mg/kg, iv measured upto 1440 mins by LC-MS/MS analysis; format: ADME, organism-based; details: in vivo, 24 h
# [11] = Tmax in BALB/c mouse at 40 mg/kg, iv measured upto 1440 mins by LC-MS/MS analysis; format: ADME, organism-based; details: in vivo, 24 h
# [12] = Clearance in BALB/c mouse at 40 mg/kg, iv measured upto 1440 mins by LC-MS/MS analysis; format: ADME, organism-based; details: in vivo, 24 h
# [13] = Volume of distribution at steady state in BALB/c mouse at 40 mg/kg, iv measured upto 1440 mins by LC-MS/MS analysis; format: ADME, organism-based; details: in vivo, 24 h
# [14] = AUC infinity in BALB/c mouse at 150 mg/kg, po measured after 15 to 360 mins by LC-MS/MS analysis; format: ADME, organism-based; details: in vivo, time 15-360 min
# [15] = Cmax in BALB/c mouse at 150 mg/kg, po measured after 15 to 360 mins by LC-MS/MS analysis; format: ADME, organism-based; details: in vivo, time 15-360 min
# [16] = Half life in BALB/c mouse at 150 mg/kg, po measured after 15 to 360 mins by LC-MS/MS analysis; format: ADME, organism-based; details: in vivo, time 15-360 min
# [17] = Oral bioavailability in BALB/c mouse at 150 mg/kg measured after 15 to 360 mins by LC-MS/MS analysis; format: ADME, organism-based; details: in vivo, time 15-360 min
# [18] = Unbound clearance in human plasma; format: ADME, cell-free
# [19] = Stability in human plasma; format: ADME, cell-free
# [20] = Drug recovery in human plasma; format: ADME, cell-free
# [21] = Toxicity in BALB/c mouse assessed as diarrhea at 40 mg/kg, iv; format: organism-based; details: in vivo
# [22] = Toxicity in BALB/c mouse assessed as paralysis at 40 mg/kg, iv; format: organism-based; details: in vivo
# [23] = Toxicity in BALB/c mouse assessed as tremor at 40 mg/kg, iv; format: organism-based; details: in vivo
# [24] = Toxicity in BALB/c mouse assessed as effect on weight loss at 100 mg/kg, po; format: organism-based; details: in vivo
# [25] = Toxicity in BALB/c mouse assessed as effect on hair loss at 100 mg/kg, po; format: organism-based; details: in vivo
# [26] = Toxicity in BALB/c mouse assessed as paralysis at 100 mg/kg, po; format: organism-based; details: in vivo
# [27] = Toxicity in BALB/c mouse assessed as tremor at 100 mg/kg, po; format: organism-based; details: in vivo
# [28] = Drug uptake in BALB/c mouse brain at 40 mg/kg, iv measured after 2 hrs; format: ADME, organism-based; details: in vivo
# [29] = Drug uptake in BALB/c mouse kidney at 40 mg/kg, iv measured after 2 hrs; format: ADME, organism-based; details: in vivo
# [30] = Drug uptake in BALB/c mouse spleen at 40 mg/kg, iv measured after 2 hrs; format: ADME, organism-based; details: in vivo
# [31] = Drug uptake in BALB/c mouse lung at 40 mg/kg, iv measured after 2 hrs; format: ADME, organism-based; details: in vivo
# [32] = In vivo inhibition of LMP2 activity in BALB/c mouse blood at 40 mg/kg, iv measured after 2 hrs relative to control; format: functional
# [33] = In vivo inhibition of LMP2 activity in BALB/c mouse brain at 40 mg/kg, iv measured after 24 hrs relative to control; format: functional
# [34] = In vivo inhibition of LMP2 activity in BALB/c mouse brain at 100 mg/kg, iv measured after 24 hrs relative to control; format: functional
# [35] = In vivo inhibition of LMP2 activity in BALB/c mouse brain at 150 mg/kg, po measured after 6 hrs post dose relative to control; format: functional
# [36] = In vivo inhibition of LMP2 activity in BALB/c mouse blood at 150 mg/kg, po measured after 6 hrs post dose relative to control; format: functional
structure (smiles),measurement,setting,value
CC(C)C[C@H](NC(=O)[C@@H]1COCCCCCC(=O)N2C[C@H](F)C[C@H]2C(=O)N1)C(=O)[C@@]1(C)CO1,pIC50,[1],7.06
same,Stability,[2],33%
same,Papp,[3],17.3 10^-6 cm/s
same,Papp,[4],6.62 10^-6 cm/s
same,Ratio,[5],2.62
same,IC50 at 96 h,[6],> 100000 nM
same,Activity,HMC3,Non-Toxic
same,Activity,ARPE-19,Non-Toxic
same,Activity,[7],Non-Toxic
same,Activity,[8],Non-Toxic
same,inhibition,[9],Active
same,AUClast,[10],9689 ng·h/mL
same,Tmax,[11],4.98 min
same,CL,[12],70.88 mL/min/kg
same,Vdss,[13],2.572 L/kg
same,AUC,[14],3571 ng·h/mL
same,Cmax,[15],3630 ng/mL
same,t1/2,[16],47.5 min
same,F,[17],9.8%
same,CL free,[18],72 mL/min/kg
same,Stability,[19],78%
same,Drug recovery,[20],74%
same,Activity,[21],Non-Toxic
same,Activity,[22],Non-Toxic
same,Activity,[23],Non-Toxic
same,Activity,[24],Non-Toxic
same,Activity,[25],Non-Toxic
same,Activity,[26],Non-Toxic
same,Activity,[27],Non-Toxic
same,Drug uptake,[28],Active
same,Drug uptake,[29],Active
same,Drug uptake,[30],Active
same,Drug uptake,[31],Not Active
same,inhibition in vivo at 40 mg/kg,[32],100%
same,inhibition in vivo at 40 mg/kg,[33],39%
same,inhibition in vivo at 100 mg/kg,[34],65%
same,inhibition in vivo at 150 mg/kg,[35],21%
same,inhibition in vivo at 150 mg/kg,[36],90%
